Data published in the supplement of paper PMC13380429.

Experiments:
[1] = system: A549-ACE2 infected with SARS-CoV-2; assay: SARS-CoV-2 infection rate relative to DMSO; higher = more infection; conditions: 24 h
[2] = system: A549-ACE2 infected with SARS-CoV-2; assay: cell count relative to DMSO; higher = less toxic; conditions: 24 h
U2OS [3] = assay: relative viability EC50 (midpoint between 100% and the lowest measured viability); higher = less toxic; conditions: 72 h
HepG2 [4] = assay: as above; conditions: 72 h
Calu-3 [5] = assay: as above; conditions: 72 h
Vero E6 [6] = assay: as above; conditions: 72 h
Caco-2 [7] = assay: as above; conditions: 72 h
A549-ACE2 [8] = assay: drug-induced phospholipidosis relative to tamoxifen; higher = more phospholipidosis
[9] = system: A549-ACE2 infected with SARS-CoV-2; assay: morphology score (similarity to uninfected cells); higher = more like uninfected cells; conditions: 24 h
U2OS [10] = assay: cell viability relative to DMSO; higher = less toxic; conditions: 72 h
HepG2 [11] = assay: as above; conditions: 72 h
Calu-3 [12] = assay: as above; conditions: 72 h
Vero E6 [13] = assay: as above; conditions: 72 h
Caco-2 [14] = assay: as above; conditions: 72 h
U2OS [15] = assay: drug sensitivity score (DSS) for viability; higher = more toxic; extreme values may be limits of the assay; conditions: 72 h
HepG2 [16] = assay: as above; conditions: 72 h
Calu-3 [17] = assay: as above; conditions: 72 h
Vero E6 [18] = assay: as above; conditions: 72 h
Caco-2 [19] = assay: as above; conditions: 72 h
A549-ACE2 [20] = assay: phospholipidosis EC50; higher = less potent phospholipidosis inducer

CC1=C(C(=O)OC2CCCCC2)C(c2ccc([N+](=O)[O-])cc2)C2=C(CC(C)(C)CC2=O)N1 (stereo not drawn) [FLI-06]
Conditions | SARS-CoV-2 infection rate, [1] [%] | cell count, [2] [%] | cell viability, Caco-2 [14] [%] | cell viability, Calu-3 [12] [%] | cell viability, HepG2 [11] [%] | cell viability, U2OS [10] [%] | cell viability, Vero E6 [13] [%] | morphology score, [9]
1 nM | – | – | 102 | 104 | 98.5 | 101 | 94.2 | –
10 nM | – | – | 101 | 106 | 102 | 100 | 92.2 | –
0.1 µM | 111 | 99 | – | – | – | – | – | -0.06
100 nM | – | – | 100 | 92.3 | 101 | 98.7 | 96.6 | –
0.3 µM | 100 | 104 | – | – | – | – | – | -0.11
1 µM | 101 | 99 | – | – | – | – | – | 0.02
1000 nM | – | – | 98 | 106 | 108 | 100 | 103 | –
3 µM | 51 | 101 | – | – | – | – | – | 0.52
10000 nM | – | – | 19.1 | 21.8 | 38.8 | 9.6 | 14.2 | –

Conditions | drug sensitivity score | relative viability EC50 [µM]
Caco-2 [7] | – | 2.99
Caco-2 [19] | 4.7 | –
Calu-3 [5] | – | 3.53
Calu-3 [17] | 3.9 | –
HepG2 [4] | – | 3.72
HepG2 [16] | 2.8 | –
U2OS [3] | – | 3.16
U2OS [15] | 5.1 | –
Vero E6 [6] | – | 3.36
Vero E6 [18] | 4.5 | –

drug-induced phospholipidosis [%], A549-ACE2 [8]
Conditions | 0.3 µM | 0.833333 µM | 3.33333 µM | 6.66667 µM | 10 µM | 30 µM
24 h | -0.85 | 2.59 | 9.31 | 10.3 | 4.47 | 3.32
48 h | 3.76 | 2.95 | -2.25 | -3.67 | – | –
72 h | 4.47 | 2.39 | -2.58 | – | – | –

O=C(NCCCN1CCC2(CC1)OCc1ccccc12)[C@H]1CCCN1Cc1ccccc1 [BAN-ORL-24]
Conditions | SARS-CoV-2 infection rate [%] | cell count [%] | cell viability [%] | morphology score | phospholipidosis EC50 [µM]
A549-ACE2 [20], 24 h | – | – | – | – | 9.61
A549-ACE2 [20], 48 h | – | – | – | – | 9.12
A549-ACE2 [20], 72 h | – | – | – | – | 15
Caco-2 [14], 1 nM | – | – | 98.3 | – | –
Caco-2 [14], 10 nM | – | – | 103 | – | –
Caco-2 [14], 100 nM | – | – | 101 | – | –
Caco-2 [14], 1000 nM | – | – | 105 | – | –
Caco-2 [14], 10000 nM | – | – | 92.1 | – | –
Calu-3 [12], 1 nM | – | – | 104 | – | –
Calu-3 [12], 10 nM | – | – | 108 | – | –
Calu-3 [12], 100 nM | – | – | 114 | – | –
Calu-3 [12], 1000 nM | – | – | 105 | – | –
Calu-3 [12], 10000 nM | – | – | 87.1 | – | –
HepG2 [11], 1 nM | – | – | 97.5 | – | –
HepG2 [11], 10 nM | – | – | 109 | – | –
HepG2 [11], 100 nM | – | – | 103 | – | –
HepG2 [11], 1000 nM | – | – | 98.7 | – | –
HepG2 [11], 10000 nM | – | – | 89.2 | – | –
U2OS [10], 1 nM | – | – | 105 | – | –
U2OS [10], 10 nM | – | – | 105 | – | –
U2OS [10], 100 nM | – | – | 104 | – | –
U2OS [10], 1000 nM | – | – | 104 | – | –
U2OS [10], 10000 nM | – | – | 99.2 | – | –
Vero E6 [13], 1 nM | – | – | 94.8 | – | –
Vero E6 [13], 10 nM | – | – | 95.8 | – | –
Vero E6 [13], 100 nM | – | – | 91.6 | – | –
Vero E6 [13], 1000 nM | – | – | 93.2 | – | –
Vero E6 [13], 10000 nM | – | – | 99.5 | – | –
[1], 0.3 µM | 98 | – | – | – | –
[1], 3 µM | 59 | – | – | – | –
[1], 10 µM | 33 | – | – | – | –
[1], 30 µM | 18 | – | – | – | –
[2], 0.3 µM | – | 98 | – | – | –
[2], 3 µM | – | 117 | – | – | –
[2], 10 µM | – | 117 | – | – | –
[2], 30 µM | – | 123 | – | – | –
[9], 0.3 µM | – | – | – | -0.05 | –
[9], 3 µM | – | – | – | 0.69 | –
[9], 10 µM | – | – | – | 0.81 | –
[9], 30 µM | – | – | – | 0.69 | –

Conditions | drug sensitivity score | relative viability EC50 [µM]
Caco-2 [7] | – | > 10
Caco-2 [19] | 0 | –
Calu-3 [5] | – | > 10
Calu-3 [17] | 0 | –
HepG2 [4] | – | > 10
HepG2 [16] | 0 | –
U2OS [3] | – | > 10
U2OS [15] | 0 | –
Vero E6 [6] | – | > 10
Vero E6 [18] | 0 | –

drug-induced phospholipidosis [%], A549-ACE2 [8]
Conditions | 0.3 µM | 0.833333 µM | 3.33333 µM | 6.66667 µM | 10 µM | 30 µM
24 h | 0.49 | 5.2 | 25.6 | 45.9 | 72.6 | 109
48 h | 2.06 | 7.81 | 23.6 | 36.2 | 59.3 | 110
72 h | 5.31 | 9.96 | 24.4 | 35 | 56.6 | 125
